Results on twelve compounds are retold here after patent US9206219B2, “17-hydroxy-17-pentafluorethyl-estra-4,9(10)-dien-11-aryl derivatives, methods for the production thereof and the use thereof for treating diseases” (Bayer Intellectual Property GmbH, priority 2009, dated 2015).

What is called IC50 is the midpoint of a concentration-inhibition curve.

The target of assay [1] is T1, human progesterone receptor A (Homo sapiens, UniProt P06401).
T1 construct: expressed in transfected cells; host or cells: SK-N-MC human neuroblastoma cells, stably transfected with pRChPR-A-neo and pMMTV-LUC
T1 sequence (P06401 1-769 isoform P06401-2): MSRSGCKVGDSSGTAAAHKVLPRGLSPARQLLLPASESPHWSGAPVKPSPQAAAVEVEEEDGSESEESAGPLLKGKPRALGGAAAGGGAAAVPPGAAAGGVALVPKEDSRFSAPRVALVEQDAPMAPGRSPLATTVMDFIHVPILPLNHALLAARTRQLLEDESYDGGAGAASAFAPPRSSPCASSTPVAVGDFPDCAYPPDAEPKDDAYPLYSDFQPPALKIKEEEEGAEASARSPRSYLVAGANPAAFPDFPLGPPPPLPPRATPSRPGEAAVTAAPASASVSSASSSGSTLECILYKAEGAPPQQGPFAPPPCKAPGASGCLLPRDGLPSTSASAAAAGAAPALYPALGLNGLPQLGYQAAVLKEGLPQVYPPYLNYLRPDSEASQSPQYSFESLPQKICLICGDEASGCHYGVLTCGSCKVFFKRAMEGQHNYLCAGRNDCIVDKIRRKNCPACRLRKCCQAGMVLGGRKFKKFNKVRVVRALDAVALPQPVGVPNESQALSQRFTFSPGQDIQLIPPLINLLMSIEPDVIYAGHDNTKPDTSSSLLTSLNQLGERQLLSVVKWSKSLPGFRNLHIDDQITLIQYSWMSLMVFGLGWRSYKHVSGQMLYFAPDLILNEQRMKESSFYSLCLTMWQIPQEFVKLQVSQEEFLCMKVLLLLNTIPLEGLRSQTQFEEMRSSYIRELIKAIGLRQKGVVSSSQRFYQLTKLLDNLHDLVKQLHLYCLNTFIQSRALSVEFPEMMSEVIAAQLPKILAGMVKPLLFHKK
Kind of assay: Progesterone receptor-antagonistic action in stably transfected SK-N-MC cells, MMTV-LUC reporter (PR-A). Format: cell-based. The conditions noted are these: antagonistic potency vs 0.1 nmol/l promegestone, 24 hours. The protocol:
(§1) Progesterone Receptor-Antagonistic Action in Stable Transfectants of Human Neuroblastoma Cells (SK-N-MC Cells) with the Human Progesterone A or Progesterone B Receptor and an MN-LUC Reporter Construct
(§2) SK-N-MC cells (human neuroblastoma cells) which have been stably transfected with plasmids expressing the human progesterone receptor B (pRChPR-B-neo) or the human progesterone receptor A (pRChPR-A-neo) and a reporter construct (pMMTV-LUC) were incubated for 24 hours either in the absence (negative control) or in the presence of ascending amounts of the particular test compound (0.01 nmol/l, 0.1 nmol/l, 1 nmol/l, 10 nmol/l, 100 nmol/l and […]), in order to determine the agonistic efficacy. As a positive control of the reporter gene induction, the cells were treated with the synthetic gestagen promegestone (0.01 nmol/l, 0.1 nmol/l, 1 nmol/l, 10 nmol/l, 100 nmol/l and […]). To determine the antagonistic activity, the cells were treated with 0.1 nmol/l promegestone and additionally with ascending amounts of the particular test compound (0.01 nmol/l, 0.1 nmol/l, 1 nmol/l, 10 nmol/l, 100 nmol/l and […]). The activity of the reporter gene LUC (LUC=luciferase) was determined in the cell lysates and measured as RLU (relative light units). All measurements are reported as % efficacy and as EC50 and IC50 concentrations.

In assay [2] the target is T2, human progesterone receptor B (Homo sapiens, UniProt P06401).
T2 construct: expressed in transfected cells; host or cells: SK-N-MC human neuroblastoma cells, stably transfected with pRChPR-B-neo and pMMTV-LUC
T2 sequence (P06401 1-933): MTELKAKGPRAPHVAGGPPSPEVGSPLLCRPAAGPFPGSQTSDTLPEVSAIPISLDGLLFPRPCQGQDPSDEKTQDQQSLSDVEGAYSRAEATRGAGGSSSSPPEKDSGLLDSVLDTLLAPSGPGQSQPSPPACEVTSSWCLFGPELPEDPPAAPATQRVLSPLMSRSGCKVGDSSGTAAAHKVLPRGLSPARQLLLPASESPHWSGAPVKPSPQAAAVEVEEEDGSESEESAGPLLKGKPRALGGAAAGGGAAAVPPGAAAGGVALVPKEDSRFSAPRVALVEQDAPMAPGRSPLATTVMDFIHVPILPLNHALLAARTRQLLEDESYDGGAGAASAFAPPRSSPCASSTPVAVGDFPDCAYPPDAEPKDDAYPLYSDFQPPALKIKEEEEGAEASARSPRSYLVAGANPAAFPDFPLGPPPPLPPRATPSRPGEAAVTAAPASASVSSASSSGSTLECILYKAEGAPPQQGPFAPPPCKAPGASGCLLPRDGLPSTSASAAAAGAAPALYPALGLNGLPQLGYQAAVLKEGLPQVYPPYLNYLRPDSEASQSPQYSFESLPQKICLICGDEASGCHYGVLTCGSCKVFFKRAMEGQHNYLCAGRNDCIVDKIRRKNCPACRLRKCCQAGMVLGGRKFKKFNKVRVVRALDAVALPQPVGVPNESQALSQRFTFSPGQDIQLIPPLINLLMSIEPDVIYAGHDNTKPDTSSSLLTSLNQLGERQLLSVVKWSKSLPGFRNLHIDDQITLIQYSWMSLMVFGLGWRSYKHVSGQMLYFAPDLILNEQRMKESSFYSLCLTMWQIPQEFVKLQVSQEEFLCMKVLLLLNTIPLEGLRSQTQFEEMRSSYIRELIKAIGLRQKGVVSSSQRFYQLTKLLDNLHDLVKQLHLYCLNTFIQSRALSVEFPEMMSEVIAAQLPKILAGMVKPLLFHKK
Kind of assay: Progesterone receptor-antagonistic action in stably transfected SK-N-MC cells, MMTV-LUC reporter (PR-B). Format: cell-based. The note with it: antagonistic potency vs 0.1 nmol/l promegestone, 24 hours. The protocol: as §1, §2

On to `Cc1ccc(NC(=O)NCc2ccc([C@H]3C[C@@]4(C)[C@@H](CC[C@@]4(O)C(F)(F)C(F)(F)F)[C@@H]4CCC5=CC(=O)CCC5=C43)cc2)cc1` [Example 25, 1-[4-((8S,11R,13S,14S,17S)-17-hydroxy-13-methyl-3-oxo-17-pentafluoroethyl-2,3,6,7,8,11,12,13,14,15,16,17-dodecahydro-1H-cyclopenta[a]phenanthren-11-yl)benzyl]-3-p-tolylurea], for which the IC50 turned out to be 0.3 nM in assay [1] and 0.6 nM in assay [2].

As for `C[C@]12C[C@H](c3ccc(CNC(=O)NCC(=O)O)cc3)C3=C4CCC(=O)C=C4CC[C@H]3[C@@H]1CC[C@@]2(O)C(F)(F)C(F)(F)F` [Example 26, {3-[4-((8S,11R,13S,14S,17S)-17-hydroxy-13-methyl-3-oxo-17-pentafluoroethyl-2,3,6,7,8,11,12,13,14,15,16,17-dodecahydro-1H-cyclopenta[a]phenanthren-11-yl)benzyl]ureido}acetic acid], the results for the IC50 in assay [1] and in assay [2] were 24 nM and 64 nM, respectively.

Turning to `C[C@]12C[C@H](c3ccc(CNC(=O)NCCC(=O)O)cc3)C3=C4CCC(=O)C=C4CC[C@H]3[C@@H]1CC[C@@]2(O)C(F)(F)C(F)(F)F` [Example 27, 3-{3-[4-((8S,11R,13S,14S,17S)-17-hydroxy-13-methyl-3-oxo-17-pentafluoroethyl-2,3,6,7,8,11,12,13,14,15,16,17-dodecahydro-1H-cyclopenta[a]phenanthren-11-yl)benzyl]ureido}propionic acid], the IC50 in assay [1] amounted to 43 nM; in assay [2], 29 nM.

As for `C[C@]12C[C@H](c3ccc(CN=[N+]=[N-])cc3)C3=C4CCC(=O)C=C4CC[C@H]3[C@@H]1CC[C@@]2(O)C(F)(F)C(F)(F)F` [Example 28, (8S,11R,13S,14S,17S)-11-(4-azidomethylphenyl)-17-hydroxy-13-methyl-17-pentafluoroethyl-1,2,6,7,8,11,12,13,14,15,16,17-dodecahydrocyclopenta[a]phenanthren-3-one], the IC50 in assay [1] turned out to be 0.01 nM; in assay [2], 0.08 nM.

For `C[C@]12C[C@H](c3ccc(-c4nnn[nH]4)cc3)C3=C4CCC(=O)C=C4CC[C@H]3[C@@H]1CC[C@@]2(O)C(F)(F)C(F)(F)F` [Example 31, (8S,11R,13S,14S,17S)-17-hydroxy-13-methyl-17-pentafluoroethyl-11-[4-(1H-tetrazol-5-yl)phenyl]-1,2,6,7,8,11,12,13,14,15,16,17-dodecahydrocyclopenta[a]phenanthren-3-one], the IC50 in assay [1] is 138 nM; in assay [2], 137 nM.

Regarding `COc1ccc(NC(=O)NCc2ccc([C@H]3C[C@@]4(C)[C@@H](CC[C@@]4(O)C(F)(F)C(F)(F)F)[C@@H]4CCC5=CC(=O)CCC5=C43)cc2)cc1` [Example 32, 1-[4-((8S,11R,13S,14S,17S)-17-hydroxy-13-methyl-3-oxo-17-pentafluoroethyl-2,3,6,7,8,11,12,13,14,15,16,17-dodecahydro-1H-cyclopenta[a]phenanthren-11-yl)benzyl]-3-(4-methoxyphenyl)urea], the IC50 amounted to 0.1 nM in assay [1] and 0.2 nM in assay [2].

Take `C[C@]12C[C@H](c3ccc(CNC(=O)Nc4ccc(F)cc4)cc3)C3=C4CCC(=O)C=C4CC[C@H]3[C@@H]1CC[C@@]2(O)C(F)(F)C(F)(F)F` [Example 33, 1-(4-fluorophenyl)-3-[4-((8S,11R,13S,14S,17S)-17-hydroxy-13-methyl-3-oxo-17-pentafluoroethyl-2,3,6,7,8,11,12,13,14,15,16,17-dodecahydro-1H-cyclopenta[a]phenanthren-11-yl)benzyl]urea]: the IC50 in assay [1] and in assay [2] was 0.8 nM each time.

Consider `C[C@]12C[C@H](c3ccc(CNC(=O)Nc4ccc(Cl)cc4)cc3)C3=C4CCC(=O)C=C4CC[C@H]3[C@@H]1CC[C@@]2(O)C(F)(F)C(F)(F)F` [Example 34, 1-(4-chlorophenyl)-3-[4-((8S,11R,13S,14S,17S)-17-hydroxy-13-methyl-3-oxo-17-pentafluoroethyl-2,3,6,7,8,11,12,13,14,15,16,17-dodecahydro-1H-cyclopenta[a]phenanthren-11-yl)benzyl]urea], for which the IC50 came to 0.7 nM in assay [1] and 0.8 nM in assay [2].

Regarding `CC(C)(C)c1ccc(NC(=O)NCc2ccc([C@H]3C[C@@]4(C)[C@@H](CC[C@@]4(O)C(F)(F)C(F)(F)F)[C@@H]4CCC5=CC(=O)CCC5=C43)cc2)cc1` [Example 35, 1-(4-tert-butylphenyl)-3-[4-((8S,11R,13S,14S,17S)-17-hydroxy-13-methyl-3-oxo-17-pentafluoroethyl-2,3,6,7,8,11,12,13,14,15,16,17-dodecahydro-1H-cyclopenta[a]phenanthren-11-yl)benzyl]urea], the IC50 in assay [1] turned out to be 0.3 nM; in assay [2] it was 0.6 nM.

Take `CCOC(=O)c1ccc(NC(=O)NCc2ccc([C@H]3C[C@@]4(C)[C@@H](CC[C@@]4(O)C(F)(F)C(F)(F)F)[C@@H]4CCC5=CC(=O)CCC5=C43)cc2)cc1` [Example 36, 4-{3-[4-((8S,11R,13S,14S,17S)-17-hydroxy-13-methyl-3-oxo-17-pentafluoroethyl-2,3,6,7,8,11,12,13,14,15,16,17-dodecahydro-1H-cyclopenta[a]phenanthren-11-yl)benzyl]ureido}benzoic acid ethyl ester]: the IC50 in assay [1] is 0.7 nM; in assay [2], 0.8 nM.

On to `C[C@]12C[C@H](c3ccc(CNC(=O)Nc4ccc(C(=O)O)cc4)cc3)C3=C4CCC(=O)C=C4CC[C@H]3[C@@H]1CC[C@@]2(O)C(F)(F)C(F)(F)F` [Example 38, 4-{3-[4-((8S,11R,13S,14S,17S)-17-hydroxy-13-methyl-3-oxo-17-pentafluoroethyl-2,3,6,7,8,11,12,13,14,15,16,17-dodecahydro-1H-cyclopenta[a]phenanthren-11-yl)benzyl]ureido}benzoic acid], for which the IC50 was 25 nM in assay [1] and 36 nM in assay [2].

On to `C[C@]12C[C@H](c3ccc(CNC(=O)Nc4ccc(N5CCCCC5)cc4)cc3)C3=C4CCC(=O)C=C4CC[C@H]3[C@@H]1CC[C@@]2(O)C(F)(F)C(F)(F)F` [Example 39, 1-[4-((8S,11R,13S,14S,17S)-17-hydroxy-13-methyl-3-oxo-17-pentafluoroethyl-2,3,6,7,8,11,12,13,14,15,16,17-dodecahydro-1H-cyclopenta[a]phenanthren-11-yl)benzyl]-3-(4-piperidin-1-ylphenyl)urea], for which the IC50 in assay [1] is 0.1 nM; in assay [2], 0.2 nM.
